# Laboratory results taken from ChEMBL document CHEMBL2434896, “Carbonic anhydrase inhibitors. Synthesis of heterocyclic 4-substituted pyridine-3-sulfonamide derivatives and their inhibition of the human cytosolic isozymes I and II and transmembrane tumor-associated isozymes IX and XII” (Eur J Med Chem, 2013).
# Target: Carbonic anhydrase 9 (Homo sapiens, UniProt Q16790)
# Experiment: Inhibition of human carbonic anhydrase 9 after 15 mins by stopped flow CO2 hydration assay
row,Ki [nM],Compound
1,24.8,Cc1cc(C)n(-c2ccncc2S(N)(=O)=O)n1
2,239,NS(=O)(=O)c1cnccc1N1CCN(c2ccc(F)cc2)CC1
3,19.5,CCOC(=O)CCc1c(C)nn(-c2ccncc2S(N)(=O)=O)c1C
